For three molecules, Kd results are on record in paper PMC4673829 (Nature Communications, 2015).

SMILES strings stand for the structures. Read-outs that look alike come from different tables or passages of the source.

One experiment deals with T1, BPTF PHD zinc finger (Homo sapiens, UniProt Q12830).
T1 construct: the PHD zinc fingers of JARID1A, BPTF, TAF3 and the tudor domains of the Royal family of SGF29 and JMJD2A; made in house; host or cells: Escherichia coli Rosetta BL21 DE3 pLysS
Kind of experiment: ITC binding to BPTF PHD zinc finger. Particulars: ITC (Auto-iTC200), one set of sites; 350–600 μM 10-mer peptide into 25–40 μM protein (eluted in 50 mM Tris, 20 mM NaCl, pH 7.5); 5–7 independent experiments; stoichiometry n=0.95–1.05. The source says:
(§1) We use isothermal titration calorimetry (ITC) to obtain full thermodynamic descriptions for binding of H3K4me3, H3C4me3 and H3G4 peptides to five representative reader proteins that specifically recognize H3K4me3 (the PHD zinc fingers of JARID1A, BPTF, TAF3 and the tudor domains of the Royal family of SGF29 and JMJD2A) (Table 1 and Fig. 1b,c)[19][20][21][22][23]. The five reader pockets are different in the aromatic cage composition and architecture, which allows us to examine the effect of individual constitution of the aromatic cage on binding differences.
(§2) Reader proteins were prepared and purified following the previously reported procedure. Briefly, the reader domains of BPTF, JMJD2A, JARID1A, TAF3 and SGF29 were expressed in Escherichia coli Rosetta BL21 DE3 pLysS hosts, using Terrific Broth medium. The bacteria were cultured to OD600 ∼0.6 at 37 °C after which they were induced with 0.5 mM isopropyl-b-D-thiogalactoside overnight at 16 °C. […]
(§3) Concentrations of histone peptides were measured by ultraviolet spectroscopy at 205 nm, following the previously reported method. All histone peptides were titrated to the same batch of reader proteins. […] Heats of dilution for histone peptides were determined in control experiments, and were subtracted from the titration binding data before curve fitting. […] For each reader–histone system, 5–7 independent ITC experiments were carried out. […]

For experiment [1], the target named is T2, SGF29 tandem tudor domain (Homo sapiens, UniProt Q96ES7).
T2 construct: 6xHis (cleaved yes); made in house; host or cells: Escherichia coli Rosetta BL21 DE3 pLysS
T2 sequence (Q96ES7 115-293): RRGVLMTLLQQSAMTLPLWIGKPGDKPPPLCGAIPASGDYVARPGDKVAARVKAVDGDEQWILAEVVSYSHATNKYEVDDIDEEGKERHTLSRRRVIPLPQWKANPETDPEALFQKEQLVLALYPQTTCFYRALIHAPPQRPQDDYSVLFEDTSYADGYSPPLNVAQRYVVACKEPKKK
Kind of experiment: ITC binding to SGF29 tandem tudor domain. Particulars: ITC (Auto-iTC200), one set of sites; 350–600 μM 10-mer peptide into 25–40 μM protein (eluted in 25 mM Tris, 50 mM NaCl, 1 mM dithiothreitol, pH 7.5); 5–7 independent experiments; stoichiometry n=0.95–1.05.
Text: as §1, §2, §3

A further experiment has as its target T3, JMJD2A tudor domain (Homo sapiens, UniProt O75164).
T3 construct: the PHD zinc fingers of JARID1A, BPTF, TAF3 and the tudor domains of the Royal family of SGF29 and JMJD2A; 6xHis (cleaved yes); made in house; host or cells: Escherichia coli Rosetta BL21 DE3 pLysS
T3 sequence (O75164 897-1011 limits assumed): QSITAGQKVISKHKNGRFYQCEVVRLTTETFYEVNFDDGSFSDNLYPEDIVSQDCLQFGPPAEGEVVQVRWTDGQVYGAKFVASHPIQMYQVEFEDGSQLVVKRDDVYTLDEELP
Kind of experiment: ITC binding to JMJD2A tudor domain. The conditions noted are these: 5–7 independent experiments.
Text: as §1, §2, §3

A further experiment addresses T4, JARID1A PHD3 domain (Homo sapiens, UniProt P29375).
T4 construct: made in house; host or cells: Escherichia coli Rosetta BL21 DE3 pLysS
T4 sequence (P29375 1607-1661 limits assumed): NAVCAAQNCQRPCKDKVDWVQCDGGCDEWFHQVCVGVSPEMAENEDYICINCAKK
Kind of experiment: ITC binding to JARID1A PHD3 domain.
Text: as §1
(§4) Reader proteins were prepared and purified following the previously reported procedure. Briefly, the reader domains of BPTF, JMJD2A, JARID1A, TAF3 and SGF29 were expressed in Escherichia coli Rosetta BL21 DE3 pLysS hosts, using Terrific Broth medium. The bacteria were cultured to OD600 ∼0.6 at 37 °C after which they were induced with 0.5 mM isopropyl-b-D-thiogalactoside overnight at 16 °C. Proteins were purified using Ni-NTA beads for 6xHis-tagged proteins or glutathione sepharose beads for GST tagged proteins, respectively. After purification, the 6xHis tag was cleaved from JMJD2A and SGF29 using TEV-protease and the GST tag was cleaved from TAF3 using thrombin. Protein were purified by size-exclusion chromatography using a Superdex 75 column (GE Healthcare). SGF29 was eluted in 25 mM Tris, 50 mM NaCl, 1 mM dithiothreitol at pH 7.5; JMJD2A and TAF3 were eluted in 50 mM Tris at pH 7.5; BPTF and JARID1A were eluted in 50 mM Tris, 20 mM NaCl at pH 7.5. All proteins were made filter sterile and stored at 4 °C until further use.
as §3

The target of a further experiment is T5, TAF3 PHD domain (Homo sapiens, UniProt Q5VWG9).
T5 sequence (Q5VWG9 857-924): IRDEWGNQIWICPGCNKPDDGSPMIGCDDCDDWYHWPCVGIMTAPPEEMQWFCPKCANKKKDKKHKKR
Description: ITC binding to TAF3 PHD domain. Particulars: 5–7 independent experiments.
Text: as §1, §4, §3

The mark [2] stands for this setting: ITC (Auto-iTC200), one set of sites, 350–600 μM 10-mer peptide into 25–40 μM protein (eluted in 50 mM Tris, 20 mM NaCl, pH 7.5), 5–7 independent experiments, stoichiometry n=0.95–1.05, read-out: Kd.
Where [3] appears, read: ITC (Auto-iTC200), one set of sites, 350–600 μM 10-mer peptide into 25–40 μM protein (eluted in 50 mM Tris, pH 7.5), stoichiometry n=0.95–1.05, read-out: Kd.

As usually defined, the Kd is a measure of binding affinity in units of concentration. In the case of `C[C@H](N)C(=O)N[C@@H](CCCNC(=N)N)C(=O)N[C@H](C(=O)N[C@@H](CCCCC(C)(C)C)C(=O)N[C@@H](CCC(N)=O)C(=O)N[C@H](C(=O)N[C@@H](C)C(=O)N[C@@H](CCCNC(=N)N)C(=O)N[C@@H](CCCCN)C(=O)N[C@@H](CO)C(=O)O)[C@@H](C)O)[C@@H](C)O` [H3C4me3], the Kd at BPTF PHD zinc finger worked out at 760 nM; in experiment [1], 1400 nM; at JMJD2A tudor domain (ITC, 3 mM H3C4me3 into 200 μM JMJD2A) it was 16000 nM; on JARID1A PHD3 domain (setting [2]), 340 nM; on TAF3 PHD domain (setting [3]) it was 790 nM.
For the molecule `C[C@H](N)C(=O)N[C@@H](CCCNC(=N)N)C(=O)N[C@H](C(=O)NCC(=O)N[C@@H](CCC(N)=O)C(=O)N[C@H](C(=O)N[C@@H](C)C(=O)N[C@@H](CCCNC(=N)N)C(=O)N[C@@H](CCCCN)C(=O)N[C@@H](CO)C(=O)O)[C@@H](C)O)[C@@H](C)O` [H3G4], the Kd on JARID1A PHD3 domain amounted to 88000 nM; at TAF3 PHD domain (ITC, 3 mM H3G4 into 200 μM TAF3), 36000 nM.
Consider `C[C@H](N)C(=O)N[C@@H](CCCNC(=N)N)C(=O)N[C@H](C(=O)N[C@@H](CCCC[N+](C)(C)C)C(=O)N[C@@H](CCC(N)=O)C(=O)N[C@H](C(=O)N[C@@H](C)C(=O)N[C@@H](CCCNC(=N)N)C(=O)N[C@@H](CCCCN)C(=O)N[C@@H](CO)C(=O)O)[C@@H](C)O)[C@@H](C)O` [H3K4me3], for which the Kd at BPTF PHD zinc finger was determined as 490 nM; in experiment [1], 1700 nM; on JMJD2A tudor domain (ITC (Auto-iTC200), one set of sites, 350–600 μM 10-mer peptide into 25–40 μM protein (eluted in 50 mM Tris, pH 7.5), stoichiometry n=0.95–1.05), 940 nM; at JARID1A PHD3 domain (setting [2]), 94 nM; on TAF3 PHD domain (setting [3]) it was 24 nM.
